Structures are written as SMILES. Some results are limits rather than exact numbers.

The target in this assay is T1, human plasma protein factor Xa (Homo sapiens, UniProt P00742).
T1 construct: measure proteolytic activity of the enzyme (factor Xa); purchased Haematologic Technologies (Essex Junction, Vt.); host or cells: human plasma
T1 sequence (P00742 235-488 limits assumed): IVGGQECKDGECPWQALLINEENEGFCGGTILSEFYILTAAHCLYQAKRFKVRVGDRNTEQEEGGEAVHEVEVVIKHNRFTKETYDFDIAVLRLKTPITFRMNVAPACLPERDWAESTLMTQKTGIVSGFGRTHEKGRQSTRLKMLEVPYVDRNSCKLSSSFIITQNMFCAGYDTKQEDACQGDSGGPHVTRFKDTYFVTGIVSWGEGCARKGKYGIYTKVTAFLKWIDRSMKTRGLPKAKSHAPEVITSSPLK
T1 sequence (P00742 41-179 partner limits assumed): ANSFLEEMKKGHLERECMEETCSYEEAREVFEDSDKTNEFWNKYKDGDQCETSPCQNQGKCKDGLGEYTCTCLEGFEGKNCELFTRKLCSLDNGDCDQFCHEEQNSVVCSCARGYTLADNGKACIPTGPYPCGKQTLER
The assay is described as follows: Factor Xa IC50 determination (cleavage of chromogenic substrate S-2765). Conditions: fXa 1 nM, S-2765 100 μM, Tris buffered saline pH 7.4, room temperature. The assay is classed as biochemical. The text has this:
This example illustrates methods for evaluating the compounds of the invention, along with results obtained for such assays. The in vitro and in vivo Factor Xa isoform activities of the inventive compounds can be determined by various procedures known in the art, such as a test for their ability to inhibit the activity of the Factor Xa isoform. […] The IC50 value is the concentration (in nM) of the compound required to provide 50% inhibition of Factor Xa isoform.
An in vitro assay for detecting and measuring inhibition activity against Factor Xa is as follows:
• The substrate S-2765 (Z-D-Arg-Gly-Arg-pNA.HCl) was obtained from Diapharma (West Chester, Ohio). Enzyme: • The human plasma protein factor Xa was purchased from Haematologic Technologies (Essex Junction, Vt.). Methods
All assays, which are performed in 96-well microtiter plates, measure proteolytic activity of the enzyme (factor Xa) by following cleavage of paranitroanilide substrate. The assay buffer used for proteolytic assays was Tris buffered saline (20 mM Tris, 150 mM NaCl, 5 mM CaCl2, 0.1% Bovine serum albumin (BSA), 5% Dimethly Sulfoxide (DMSO) pH 7.4). In a 96-well microtiter plate, inhibitor was serially diluted to give a range of concentrations from 0.01 nM to 10 μM (final). Duplicate sets of wells were assayed and control wells without inhibitor were included. Enzyme was added to each well,(fXa concentration=1nM), the plate was shaken for 5 seconds and then incubated for 5 minutes at room temperature. S2765 was added (100 μM final) and the plate was shaken for 5 seconds (final liquid volume in each well was 200 μl). The degree of substrate hydrolysis was measured at 405 nm on a Thermomax plate reader (Molecular Devices, Sunnyvale, Calif.) for 2 minutes. The initial velocities (mOD/min), for each range of inhibitor concentrations, were fitted to a four parameter equation using Softmax data analysis software. The parameter C, derived from the resulting curve-fit, corresponded to the concentration for half maximal inhibition (IC50).
The compound `CN1CCN=C1c1ccc(NC(=O)CNC(=O)Nc2ccc(Cl)cc2)cc1` [Example 1, N-[4-(1-methyl-4,5-dihydro-1H-imidazol-2-yl)phenyl]-2-(4-chlorophenylaminocarbonylamino)-acetamide] displayed an IC50 not above 100 nM. `CC(C)C(NC(=O)Nc1ccc(Cl)cc1)C(=O)Nc1ccc(C2=NCCN2C)cc1` (stereo not shown) [Example 2, N-[4-(1-methyl-4,5-dihydro-1H-imidazol-2-yl)phenyl]-2-isopropyl-2-(4-chlorophenylaminocarbonylamino)-acetamide] returned an IC50 not above 100 nM.

`CN1CCN=C1c1ccc(NC(=O)C(NC(=O)Nc2ccc(Cl)cc2)C(C)(C)C)cc1` (stereo not shown) [Example 3, N-[4-(1-methyl-4,5-dihydro-1H-imidazol-2-yl)phenyl]-2-(1,1-dimethylethyl)-2-(4-chlorophenylaminocarbonylamino)-acetamide] displayed an IC50 of 100 to 500 nM.

For `CN1CCN=C1c1ccc(NC(=O)C(CC(C)(C)C)NC(=O)Nc2ccc(Cl)cc2)cc1` (stereo not shown) [Example 4, N-[4-(1-methyl-4,5-dihydro-1H-imidazol-2-yl)phenyl]-2-(2,2-dimethylpropyl)-2-(4-chlorophenylaminocarbonylamino)-acetamide], the IC50 was not below 500 nM. In turn, `CN1CCN=C1c1ccc(NC(=O)C(Cc2ccccc2)NC(=O)Nc2ccc(Cl)cc2)cc1` (stereo not shown) [Example 5, N-[4-(1-methyl-4,5-dihydro-1H-imidazol-2-yl)phenyl]-2-benzyl-2-(4-chlorophenylaminocarbonylamino)-acetamide] yielded an IC50 not above 100 nM.

Compound `CN1CCN=C1c1ccc(NC(=O)C(Cc2c[nH]c3ccccc23)NC(=O)Nc2ccc(Cl)cc2)cc1` (stereo not shown) [Example 6, N-[4-(1-methyl-4,5-dihydro-1H-imidazol-2-yl)phenyl]-2-indol-3-ylmethyl-2-(4-chlorophenylaminocarbonylamino)-acetamide] registered an IC50 not above 100 nM. In turn, `CN1CCN=C1c1ccc(NC(=O)C(Cc2c[nH]cn2)NC(=O)Nc2ccc(Cl)cc2)cc1` (stereo not shown) [Example 7, N-[4-(1-methyl-4,5-dihydro-1H-imidazol-2-yl)phenyl]-2-imidazol-4-ylmethyl-2-(4-chlorophenylaminocarbonylamino)-acetamide] showed an IC50 not above 100 nM.

The compound `CN1CCN=C1c1ccc(NC(=O)C(Cc2cn(C)c3ccccc23)NC(=O)Nc2ccc(Cl)cc2)cc1` (stereo not shown) [Example 8, N-[4-(1-methyl-4,5-dihydro-1H-imidazol-2-yl)phenyl]-2-(1-methyl-indol-3-ylmethyl)-2-(4-chlorophenylaminocarbonylamino)-acetamide] displayed an IC50 not above 100 nM.

Compound `CN1CCN=C1c1ccc(NC(=O)C(NC(=O)Nc2ccc(Cl)cc2)c2cccnc2)cc1` (stereo not shown) [Example 9, N-[4-(1-methyl-4,5-dihydro-1H-imidazol-2-yl)phenyl]-2-pyridin-3-yl-2-(4-chlorophenylaminocarbonylamino)-acetamide] came in with an IC50 of 100 to 500 nM. Consider `CN1CCN=C1c1ccc(NC(=O)C(NC(=O)Nc2ccc(Cl)cc2)c2ccc(F)cc2)cc1` (stereo not shown) [Example 10, N-[4-(1-methyl-4,5-dihydro-1H-imidazol-2-yl)phenyl]-2-(4-fluorophenyl)-2-(4-chlorophenylaminocarbonylamino)-acetamide], for which the concentration for half-maximal inhibition (IC50) was not above 100 nM.

On to `CN1CCN=C1c1ccc(NC(=O)C(NC(=O)Nc2ccc(Cl)cc2)c2ccccc2F)cc1` (stereo not shown) [Example 11, N-[4-(1-methyl-4,5-dihydro-1H-imidazol-2-yl)phenyl]-2-(2-fluorophenyl)-2-(4-chlorophenylaminocarbonylamino)-acetamide], for which the half-maximal inhibitory concentration (IC50) was not above 100 nM. Take `CN1CCN=C1c1ccc(NC(=O)C(NC(=O)Nc2ccc(Cl)cc2)c2cccs2)cc1` (stereo not shown) [Example 12, N-[4-(1-methyl-4,5-dihydro-1H-imidazol-2-yl)phenyl]-2-(2-thienyl)-2-(4-chlorophenylaminocarbonylamino)-acetamide]: the IC50 is not above 100 nM. To `CN1CCN=C1c1ccc(NC(=O)C(NC(=O)Nc2ccc(Cl)cc2)c2ccsc2)cc1` (stereo not shown) [Example 13, N-[4-(1-methyl-4,5-dihydro-1H-imidazol-2-yl)phenyl]-2-(3-thienyl)-2-(4-chlorophenylaminocarbonylamino)-acetamide] belongs not above 100 nM; to `CN1CCN=C1c1ccc(NC(=O)C(NC(=O)Nc2ccc(Cl)cc2)(c2ccccc2)c2ccccc2)cc1` [Example 14, N-[4-(1-methyl-4,5-dihydro-1H-imidazol-2-yl)phenyl]-2,2-diphenyl-2-(4-chlorophenylaminocarbonylamino)-acetamide], not below 500 nM. With `CN1CCN=C1c1ccc(NC(=O)C2(NC(=O)Nc3ccc(Cl)cc3)CC2)cc1` [Example 15, N-[4-(1-methyl-4,5-dihydro-1H-imidazol-2-yl)phenyl]-1-(4-chlorophenylaminocarbonylamino)-1-cyclopropanecarboxamide], the IC50 lay in the range of 100 to 500 nM. On to `CN1CCN=C1c1ccc(NC(=O)C(NC(=O)Nc2ccc(Cl)cc2)c2ccccc2)cc1` (stereo not shown) [Example 16, N-[4-(1-methyl-4,5-dihydro-1H-imidazol-2-yl)phenyl]-2-phenyl-2-(4-chlorophenylaminocarbonylamino)-acetamide], for which the IC50 is not above 100 nM. Under `CN1CCN=C1c1ccc(NC(=O)C(NC(=O)Nc2ccc(F)cc2)c2cccs2)cc1` (stereo not shown) [Example 17, N-[4-(1-methyl-4,5-dihydro-1H-imidazol-2-yl)phenyl]-2-(2-thienyl)-2-(4-fluorophenylaminocarbonylamino)-acetamide] stands 100 to 500 nM; under `C#Cc1ccc(NC(=O)NC(C(=O)Nc2ccc(C3=NCCN3C)cc2)c2cccs2)cc1` (stereo not shown) [Example 18, N-[4-(1-methyl-4,5-dihydro-1H-imidazol-2-yl)phenyl]-2-(2-thienyl)-2-(4-ethynylphenylaminocarbonylamino)-acetamide], 100 to 500 nM; under `CN(C)C(=N)c1ccc(NC(=O)C(NC(=O)Nc2ccc(Cl)cc2)c2cccs2)cc1` (stereo not shown) [Example 19, N-[4-(dimethylaminoimino)phenyl]-2-(2-thienyl)-2-(4-chlorophenylamino-carbonylamino)-acetamide], not above 100 nM. Under `CCN(C)C(=N)c1ccc(NC(=O)C(NC(=O)Nc2ccc(Cl)cc2)c2cccs2)cc1` (stereo not shown) [Example 20, N-[4-(N-methyl-N-ethylaminoimino)phenyl]-2-(2-thienyl)-2-(4-chlorophenylaminocarbonylamino)-acetamide] stands not above 100 nM; under `N=C(c1ccc(NC(=O)C(NC(=O)Nc2ccc(Cl)cc2)c2cccs2)cc1)N1CCCC1` (stereo not shown) [Example 21], not above 100 nM.

The compound `N=C(c1ccc(NC(=O)C(NC(=O)Nc2ccc(Cl)cc2)c2cccs2)cc1)N1CCCCC1` (stereo not shown) [Example 22] registered an IC50 not above 100 nM. `CN(C)C(=N)c1ccc(NC(=O)C(NC(=O)Nc2ccc(Cl)cc2)c2ccccc2)cc1` (stereo not shown) [Example 23] showed an IC50 not above 100 nM.

In the case of `CCN(C)C(=N)c1ccc(NC(=O)C(NC(=O)Nc2ccc(Cl)cc2)c2ccccc2)cc1` (stereo not shown) [Example 24, N-[4-(N-methyl-N-ethylaminoimino)phenyl]-2-phenyl-2-(4-chlorophenylaminocarbonylamino)-acetamide], the IC50 was not above 100 nM. Under `CNC(=N)c1ccc(NC(=O)C(NC(=O)Nc2ccc(Cl)cc2)c2ccccc2)cc1` (stereo not shown) [Example 25, N-[4-(methylaminoimino)phenyl]-2-phenyl-2-(4-chlorophenylamino-carbonylamino)-acetamide] stands not above 100 nM; under `C=CCN(C)C(=N)c1ccc(NC(=O)C(NC(=O)Nc2ccc(Cl)cc2)c2ccccc2)cc1` (stereo not shown) [Example 26, N-[4-(N-methyl-N-allylaminoimino)phenyl]-2-phenyl-2-(4-chlorophenylaminocarbonylamino)-acetamide], not above 100 nM; under `C#CCN(C)C(=N)c1ccc(NC(=O)C(NC(=O)Nc2ccc(Cl)cc2)c2ccccc2)cc1` (stereo not shown) [Example 27, N-[4-(N-methyl-N-propargylaminoimino)phenyl]-2-phenyl-2-(4-chlorophenylaminocarbonylamino)-acetamide], not above 100 nM. As for `N=C(c1ccc(NC(=O)C(NC(=O)Nc2ccc(Cl)cc2)c2ccccc2)cc1)N1CCC1` (stereo not shown) [Example 28], the IC50 was not above 100 nM. For `N=C(c1ccc(NC(=O)C(NC(=O)Nc2ccc(Cl)cc2)c2ccccc2)cc1)N1CCCC1` (stereo not shown) [Example 29], the IC50 was not above 100 nM. Under `CN1CCN=C1c1ccc(NC(=O)C(NC(=O)Nc2ccc(Br)cc2)c2cccs2)cc1` (stereo not shown) [Example 30, N-[4-(1-methyl-4,5-dihydro-1H-imidazol-2-yl)phenyl]-2-(2-thienyl)-2-(4-bromophenylaminocarbonylamino)-acetamide] stands not above 100 nM. `CN1CCN=C1c1ccc(NC(=O)[C@@H](NC(=O)Nc2ccc(Cl)cc2)c2ccccc2)cc1` [Example 31, (2S) N-[4-(1-methyl-4,5-dihydro-1H-imidazol-2-yl)phenyl]-2-phenyl-2-(4-chlorophenylaminocarbonylamino)-acetamide]: the IC50 was not above 100 nM.

For the origin of these results see patent US7678913B2, “Ureas as factor Xa inhibitors” (Portola Pharmaceuticals, Inc., priority 2004, dated 2010).
